{"source": "patent US11053213B2", "about": "“Pharmaceutical compounds” (ALMAC DISCOVERY LIMITED, priority 2016, dated 2021)", "data": [{"molecular_target": "USP19 (Homo sapiens (Human), UniProt O94966)", "sequence (O94966 whole entry)": "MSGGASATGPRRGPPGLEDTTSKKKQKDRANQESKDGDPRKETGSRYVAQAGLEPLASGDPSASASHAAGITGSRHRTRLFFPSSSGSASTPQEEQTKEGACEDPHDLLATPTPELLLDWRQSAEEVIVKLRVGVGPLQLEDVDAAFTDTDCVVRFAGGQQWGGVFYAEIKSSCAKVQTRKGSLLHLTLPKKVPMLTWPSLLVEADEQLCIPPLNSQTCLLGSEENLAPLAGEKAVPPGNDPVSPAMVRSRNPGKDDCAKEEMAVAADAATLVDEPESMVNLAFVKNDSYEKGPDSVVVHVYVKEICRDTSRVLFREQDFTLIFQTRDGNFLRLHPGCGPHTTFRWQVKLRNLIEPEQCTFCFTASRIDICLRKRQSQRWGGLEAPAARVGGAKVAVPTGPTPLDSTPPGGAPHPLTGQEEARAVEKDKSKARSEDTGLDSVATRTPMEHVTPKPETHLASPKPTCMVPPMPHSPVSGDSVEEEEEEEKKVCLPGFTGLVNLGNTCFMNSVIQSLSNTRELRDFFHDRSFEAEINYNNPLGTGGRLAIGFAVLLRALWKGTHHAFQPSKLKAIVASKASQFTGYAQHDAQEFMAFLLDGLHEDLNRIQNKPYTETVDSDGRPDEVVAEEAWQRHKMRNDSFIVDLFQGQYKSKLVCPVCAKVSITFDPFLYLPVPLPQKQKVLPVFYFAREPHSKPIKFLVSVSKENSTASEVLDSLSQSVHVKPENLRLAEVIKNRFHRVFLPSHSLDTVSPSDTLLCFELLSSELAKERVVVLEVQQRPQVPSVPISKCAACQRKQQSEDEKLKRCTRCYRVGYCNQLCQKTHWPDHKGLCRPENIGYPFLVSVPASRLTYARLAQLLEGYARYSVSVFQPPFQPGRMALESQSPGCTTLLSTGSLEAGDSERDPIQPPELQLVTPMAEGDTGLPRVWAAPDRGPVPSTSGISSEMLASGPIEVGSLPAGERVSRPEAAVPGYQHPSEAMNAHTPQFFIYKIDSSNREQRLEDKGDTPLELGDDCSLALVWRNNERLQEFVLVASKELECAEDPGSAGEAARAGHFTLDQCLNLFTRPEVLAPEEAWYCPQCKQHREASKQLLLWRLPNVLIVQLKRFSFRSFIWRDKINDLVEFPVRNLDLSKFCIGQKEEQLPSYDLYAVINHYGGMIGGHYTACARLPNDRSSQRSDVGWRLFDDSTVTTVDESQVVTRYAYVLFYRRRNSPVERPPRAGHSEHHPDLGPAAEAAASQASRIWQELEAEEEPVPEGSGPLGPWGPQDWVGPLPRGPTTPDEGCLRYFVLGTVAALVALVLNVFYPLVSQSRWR", "test": "USP19 activity assay (fluorescence polarisation, Ubiquitin-Lys-TAMRA substrate)", "format": "biochemical", "details": "full-length USP19 2.5 nM, 30 min pre-incubation, Ub substrate 500 nM; average of at least two duplicate experiments", "units": {"IC50": "µM"}, "values": [{"smiles": "C[C@H](CC(=O)N1CCC(O)(Cn2cc(C(=O)N3CCCCC3)c(-c3ccccc3)cc2=O)CC1)c1ccccc1", "note": "[Example 88, (R)-1-((4-Hydroxy-1-(3-phenylbutanoyl)piperidin-4-yl)methyl)-4-phenyl-5-(piperidine-1-carbonyl)pyridin-2(1H)-one]", "IC50": "0.5 to 5"}, {"smiles": "C[C@H](CC(F)(F)F)C(=O)N1CC[C@@](O)(Cn2cc(C(=O)N3CCOCC3)c(-c3ccccc3)cc2=O)C2(CCCC2)C1", "note": "[Example 250, 1-(((S)-10-Hydroxy-7-((R)-4,4,4-trifluoro-2-methylbutanoyl)-7-azaspiro[4.5]decan-10-yl)methyl)-5-(morpholine-4-carbonyl)-4-phenylpyridin-2(1H)-one]", "IC50": "< 0.5"}, {"smiles": "C[C@H](CC1CCCCC1)C(=O)N1CCC(O)(Cn2cc(C(=O)N(C)C)c(-c3ccccc3)cc2=O)C2(CCOCC2)C1", "note": "(stereo partly drawn) [Example 234, 1-((2-((R)-3-Cyclohexyl-2-methylpropanoyl)-5-hydroxy-9-oxa-2-azaspiro[5.5]undecan-5-yl)methyl)-N,N-dimethyl-6-oxo-4-phenyl-1,6-dihydropyridine-3-carboxamide]", "IC50": "0.5 to 5"}, {"smiles": "C[C@H](CC(F)(F)F)C(=O)N1CC[C@@](O)(Cn2cc(C(=O)N(C)C)c(-c3ccccc3)cc2=O)C(C)(C)C1", "note": "[Example 204, 1-(((S)-4-Hydroxy-3,3-dimethyl-1-((R)-4,4,4-trifluoro-2-methylbutanoyl)piperidin-4-yl)methyl)-N,N-dimethyl-6-oxo-4-phenyl-1,6-dihydropyridine-3-carboxamide]", "IC50": "0.5 to 5"}, {"smiles": "C[C@H](CC1CCCCC1)C(=O)N1CC[C@@](O)(Cn2cc(C(=O)N(C)C)c(-c3ccccc3)cc2=O)C2(CCCC2)C1", "note": "[Example 211, 1-(((S)-7-((R)-3-Cyclohexyl-2-methylpropanoyl)-10-hydroxy-7-azaspiro[4.5]decan-10-yl)methyl)-N,N-dimethyl-6-oxo-4-phenyl-1,6-dihydropyridine-3-carboxamide]", "IC50": "< 0.5"}, {"smiles": "CN(C)C(=O)c1cn(C[C@]2(O)CCN(C(=O)[C@H](CO)CC3CCC3)CC2(C)C)c(=O)cc1-c1ccccc1", "note": "[Example 166, 1-(((S)-1-((S)-3-Cyclobutyl-2-(hydroxymethyl)propanoyl)-4-hydroxy-3,3-dimethylpiperidin-4-yl)methyl)-N,N-dimethyl-6-oxo-4-phenyl-1,6-dihydropyridine-3-carboxamide]", "IC50": "< 0.5"}, {"smiles": "C[C@H](CC(=O)N1CCC(O)(Cn2cc(-c3ccccc3)c(Cl)cc2=O)CC1)c1ccccc1", "note": "[Example 10, (R)-4-Chloro-1-((4-hydroxy-1 (3-phenylbutanoyl)piperidin-4-yl)methyl)-5-phenylpyridin-2(1H)-one]", "IC50": "50 to 250"}, {"smiles": "COc1ccccc1-c1cc(=O)n(CC2(O)CCN(C(=O)C[C@@H](C)c3ccccc3)CC2)cn1", "note": "[Example 17, (R)-3-((4-Hydroxy-1-(3-phenylbutanoyl)piperidin-4-yl)methyl)-6-(2-methoxyphenyl)pyrimidin-4(3H)-one]", "IC50": "5 to 50"}, {"smiles": "C[C@H](CC(F)(F)F)C(=O)N1CC[C@@](O)(Cn2cc(C(=O)N(C)C)c(-c3ccccc3)cc2=O)C2(CCCC2)C1", "note": "[Example 216, 1-(((S)-10-Hydroxy-7-((R)-4,4,4-trifluoro-2-methylbutanoyl)-7-azaspiro[4.5]decan-10-yl)methyl)-N,N-dimethyl-6-oxo-4-phenyl-1,6-dihydropyridine-3-carboxamide]", "IC50": "< 0.5"}, {"smiles": "CC(CC(F)F)C(=O)N1CCC(O)(Cn2cc(C(=O)N(C)C)c(-c3ccccc3)cc2=O)C2(CCCC2)C1", "note": "(stereo not shown) [Example 243, 1-((7-(4,4-Difluoro-2-methylbutanoyl)-10-hydroxy-7-azaspiro[4.5]decan-10-yl)methyl)-N,N-dimethyl-6-oxo-4-phenyl-1,6-dihydropyridine-3-carboxamide]", "IC50": "5 to 50"}, {"smiles": "C[C@H](CC(=O)N1CCC(O)(Cn2cc(C(=O)N(C)C)c(-c3ccccc3)cc2=O)CC1)c1ccccc1", "note": "[Example 95, (R)-1-((4-Hydroxy-1-(3-phenylbutanoyl)piperidin-4-yl)methyl)-N,N-dimethyl-6-oxo-4-phenyl-1,6-dihydropyridine-3-carboxamide]", "IC50": "5 to 50"}, {"smiles": "C[C@H](CC1CCCCC1)C(=O)N1CCC(O)(Cn2cc(C(=O)N(C)C)c(-c3ccccc3CO)cc2=O)C2(CCCC2)C1", "note": "(stereo partly drawn) [Example 151, 1-((7-((R)-3-Cyclohexyl-2-methylpropanoyl)-10-hydroxy-7-azaspiro[4.5]decan-10-yl)methyl)-4-(2-(hydroxymethyl)phenyl)-N,N-dimethyl-6-oxo-1,6-dihydropyridine-3-carboxamide]", "IC50": "5 to 50"}, {"smiles": "CON(C)C(=O)c1cn(CC2(O)CCN(C(=O)C[C@@H](C)c3ccccc3)CC2)c(=O)cc1-c1ccccc1", "note": "[Example 97, (R)-1-((4-Hydroxy-1-(3-phenylbutanoyl)piperidin-4-yl)methyl)-N-methoxy-N-methyl-6-oxo-4-phenyl-1,6-dihydropyridine-3-carboxamide]", "IC50": "5 to 50"}, {"smiles": "C[C@H](CC(=O)N1CCC(O)(Cn2cc(-c3cccc(C(N)=O)c3)c(-c3ccccc3)cc2=O)CC1)c1ccccc1", "note": "[Example 7, (R)-3-(1-((4-Hydroxy-1-(3-phenylbutanoyl)piperidin-4-yl)methyl)6-oxo-4-phenyl-1,6-dihydropyridin-3-yl)benzamide]", "IC50": "0.5 to 5"}, {"smiles": "C[C@H](CC1CCCCC1)C(=O)N1CC[C@](O)(Cn2cc(C(=O)N3CCNCC3)c(-c3ccccc3)cc2=O)C2(CCCC2)C1", "note": "[Example 210, 1-(((R)-7-((R)-3-Cyclohexyl-2-methylpropanoyl)-10-hydroxy-7-azaspiro[4.5]decan-10-yl)methyl)-4-phenyl-5-(piperazine-1-carbonyl)pyridin-2(1H)-one]", "IC50": "5 to 50"}, {"smiles": "C[C@H](CC1CCCCC1)C(=O)N1C[C@H]2CC[C@@H](C1)C2(O)Cn1cnc(-c2ccccc2F)cc1=O", "note": "(stereo partly drawn) [Example 31, 3-(((1R,5S)-3-((R)-3-Cyclohexyl-2-methylpropanoyl)-8-hydroxy-3-azabicyclo[3.2.1]octan-8-yl)methyl)-6-(2-fluorophenyl)pyrimidin-4(3H)-one]", "IC50": "0.5 to 5"}, {"smiles": "CN(C)C(=O)c1cn(CC2(O)CCN(C(=O)C(O)CC3CCCCC3)CC23CCCC3)c(=O)cc1-c1ccccc1", "note": "(stereo not shown) [Example 157, 1-((7-(3-Cyclohexyl-2-hydroxypropanoyl)-10-hydroxy-7-azaspiro[4.5]decan-10-yl)methyl)-N,N-dimethyl-6-oxo-4-phenyl-1,6-dihydropyridine-3-carboxamide]", "IC50": "< 0.5"}, {"smiles": "CN(C)C(=O)c1cn(CC2(O)CCN(C(=O)C3(C)CCCC3)CC23CCCC3)c(=O)cc1-c1ccccc1", "note": "(stereo not shown) [Example 186, 1-((10-Hydroxy-7-(1-methylcyclopentane-1-carbonyl)-7-azaspiro[4.5]decan-10-yl)methyl)-N,N-dimethyl-6-oxo-4-phenyl-1,6-dihydropyridine-3-carboxamide]", "IC50": "50 to 250"}, {"smiles": "C[C@H](CC1CCCCC1)C(=O)N1CCC(O)(Cn2cc(C(=O)N3CCN(C)CC3)c(-c3ccccc3)cc2=O)C(C)(C)C1", "note": "(stereo partly drawn) [Example 170, 1-((1-((R)-3-Cyclohexyl-2-methylpropanoyl)-4-hydroxy-3,3-dimethylpiperidin-4-yl)methyl)-5-(4-methylpiperazine-1-carbonyl)-4-phenylpyridin-2(1H)-one]", "IC50": "< 0.5"}, {"smiles": "C[C@H](CC1CCCCC1)C(=O)N1CC[C@@](O)(Cn2cc(C(=O)O)c(-c3ccccc3)cc2=O)C2(CCCC2)C1", "note": "[Example 253, 1-(((S)-7-((R)-3-Cyclohexyl-2-methylpropanoyl)-10-hydroxy-7-azaspiro[4.5]decan-10-yl)methyl)-6-oxo-4-phenyl-1,6-dihydropyridine-3-carboxylic acid]", "IC50": "< 0.5"}, {"smiles": "CN(C)C(=O)c1cn(CC2(O)CCN(C(=O)C3(C)CCCCC3)CC23CCCC3)c(=O)cc1-c1ccccc1", "note": "(stereo not shown) [Example 176, 1-((10-Hydroxy-7-(1-methylcyclohexane-1-carbonyl)-7-azaspiro[4.5]decan-10-yl)methyl)-N,N-dimethyl-6-oxo-4-phenyl-1,6-dihydropyridine-3-carboxamide]", "IC50": "5 to 50"}, {"smiles": "CN(C)C(=O)c1cn(C[C@]2(O)CCN(C(=O)C(CC(F)(F)F)CC(F)(F)F)CC23CCCC3)c(=O)cc1-c1ccccc1", "note": "[Example 218, (S)-1-((10-Hydroxy-7-(4,4,4-trifluoro-2-(2,2,2-trifluoroethyl)butanoyl)-7-azaspiro[4.5]decan-10-yl)methyl)-N,N-dimethyl-6-oxo-4-phenyl-1,6-dihydropyridine-3-carboxamide]", "IC50": "0.5 to 5"}, {"smiles": "C[C@H](CC(=O)N1CCC(O)(Cn2cc(-c3ccccn3)c(-c3ccccc3)cc2=O)CC1)c1ccccc1", "note": "[Example 91, (R)-1′-((4-Hydroxy-1-(3-phenylbutanoyl)piperidin-4-yl)methyl)-4′-phenyl-[2,3′-bipyridin]-6′(1′H)-one]", "IC50": "0.5 to 5"}, {"smiles": "C[C@H](CC(=O)N1CCC(O)(Cn2cnc(-c3cccc(C4OCCO4)c3)cc2=O)CC1)c1ccccc1", "note": "[Example 21, (R)-6-(3-(1,3-Dioxolan-2-yl)phenyl)-3-((4-hydroxy-1-(3-phenylbutanoyl)piperidin-4-yl)methyl)pyrimidin-4(3H)-one]", "IC50": "5 to 50"}, {"smiles": "CN(C)C(=O)c1cn(CC2(O)CCN(C(=O)C3(CC(F)F)CC3)CC23CCCC3)c(=O)cc1-c1ccccc1", "note": "(stereo not shown) [Example 178, 1-((7-(1-(2,2-Difluoroethyl)cyclopropane-1-carbonyl)-10-hydroxy-7-azaspiro[4.5]decan-10-yl)methyl)-N,N-dimethyl-6-oxo-4-phenyl-1,6-dihydropyridine-3-carboxamide]", "IC50": "50 to 250"}, {"smiles": "C[C@H](CC(=O)N1CCC(O)(Cn2cnc(Oc3ccc(F)cc3)cc2=O)CC1)c1ccccc1", "note": "[Example 54]", "IC50": "50 to 250"}, {"smiles": "CC1(C)CN(C(=O)CCC2CCCCC2)CCC1(O)Cn1cnc(-c2ccccc2F)cc1=O", "note": "(racemic) [Example 78, (R,S)-3-((1-(3-Cyclohexylpropanoyl)-4-hydroxy-3,3-dimethylpiperidin-4-yl)methyl)-6-(2-fluorophenyl)pyrimidin-4(3H)-one]", "IC50": "0.5 to 5"}, {"smiles": "C[C@H](CC1CCCCC1)C(=O)N1CC[C@@](O)(Cn2cc(C(=O)N3CCOCC3)c(-c3ccccc3)cc2=O)C2(CCCC2)C1", "note": "[Example 239, 1-(((S)-7-((R)-3-Cyclohexyl-2-methylpropanoyl)-10-hydroxy-7-azaspiro[4.5]decan-10-yl)methyl)-5-(morpholine-4-carbonyl)-4-phenylpyridin-2(1H)-one]", "IC50": "< 0.5"}]}]}
